These results are taken from publication PMC7118351 (BMB Reports, 2020).

Where a name gives a salt, the structure may show the parent alone. Read-outs that look alike come from different tables or passages of the source.

The EC50 is the concentration giving half of the maximal effect. High values mean weaker potency, low ones greater potency.

Data set [1] is described as follows: in vitro. As to conditions: human.
The next data set concerns Ebola trVLP replication. In words: microbe, parasite or virus in culture. The class given is cell-based, Ebola virus (EBOV).
The subject of another data set is EBOV GP. Type of data set: cell-based, Ebola virus (EBOV).
For data set [2], the system named is tetracistronic minigenome RNA incorporated into trVLPs. Type of data set: cell-based, Ebola virus (EBOV).
The next data set deals with HEK293T cells. As to conditions: human.
Data set [3] can be described thus: in vitro. Conditions: human. The source holds these as a separate data set.
For another data set, the system named is VP40. Type of data set: cell-based, Ebola virus (EBOV).
A further data set relates to rhinovirus. The class given is cell-based.
In another data set the test system is dengue virus. Type of data set: cell-based.

Compound `CN1[C@@H]2CC[C@H]1C[C@@H](OC(c1ccccc1)c1ccccc1)C2` [Benztropine mesylate] displayed a CC50 in “in vitro [1]” greater than 30 µM.
For `CN1CCN(C(c2ccccc2)c2ccc(Cl)cc2)CC1` (centres unmarked) [Chlorcyclizine], the “SI (selectivity index, ratio of CC50 to EC50)” value in the data set with Ebola trVLP replication is greater than 17.0. Moreover, the EC50 with Ebola trVLP replication (Zaire ebolavirus, HEK-293T) worked out at 2.7 ± 2.2 µM. Moreover, in the data set “in vitro [1]”, the CC50 was greater than 30 µM.
The like results for `CN1[C@@H]2CC[C@H]1C[C@@H](OC(c1ccccc1)c1ccc(Cl)cc1)C2` (some centres unmarked) [Hit 3-CPMT, 3a-[(4-chlorophenyl)phenylmethoxy]tropane] were, in that order, greater than 26.3, 1.3 ± 0.5 µM and greater than 30 µM.
As for `NC(=O)c1nc(F)c[nH]c1=O` [Hit T-705, 6-flouro-3-hydroxy-2-pyrazinecarboxamide], the “SI (selectivity index, ratio of CC50 to EC50)” value with Ebola trVLP replication is greater than 13.0. Also, in the data set on Ebola trVLP replication (Zaire ebolavirus, HEK-293T), the response was half-maximal at 4.7 ± 3.1 µM (EC50). In “in vitro [1]”, this compound had a CC50 greater than 90 µM.
Taken in the same sequence, the figures for `CN1CCCN(C(c2ccccc2)c2ccc(Cl)cc2)CC1` (centres unmarked) [Homochlorcyclizine] were greater than 37.1, 0.8 µM and greater than 30 µM.
As for `CC(C)(N)C(=O)N[C@H](COCc1ccccc1)C(=O)N1CCC2(CC1)CN(S(C)(=O)=O)c1ccccc12` [Ibutamoren mesylate, ibutamoren mesylate], in the data set with Ebola trVLP replication, the EC50 was less than 0.4 µM; the “S.I. (selectivity index)” value came out at 222.8; the “SI (selectivity index, ratio of CC50 to EC50)” value was greater than 81.1. Besides, the EC50 in the data set on Ebola trVLP replication (Zaire ebolavirus, HEK-293T) was determined as 0.2 µM. Also, the “reduction of the number of GP-positive spots” value (from here on “reduction”) in the data set on EBOV GP stood at 74.2%. For the same compound, the “amount of negative-sense minigenome RNA incorporated into trVLPs” value (“amount” below) in data set [2] is recorded as “suppression of the amount of negative-sense minigenome RNA incorporated into trVLPs in a dose-dependent manner”. The CC50 with HEK293T cells was greater than 30 µM. In addition, the CC50 in the data set “in vitro [3]” was found to be 76.7 µM. For the same compound, the “VP40 protein level (Western blot)” value with VP40 is recorded as “downregulated in a dose-dependent manner”.
Compound `CN(C)C(=O)C(CCN1CCC(O)(c2ccc(Cl)cc2)CC1)(c1ccccc1)c1ccccc1` [Loperamide] returned a CC50 in “in vitro [1]” greater than 30 µM.
As to `CNCCCC12CCC(c3ccccc31)c1ccccc12` [Maprotiline], in “in vitro [1]”, the CC50 was determined as 25.1 ± 2.1 µM.
In the case of `OCCN1CCN(CCCN2c3ccccc3Sc3ccc(Cl)cc32)CC1` [Perphenazine], in the data set with Ebola trVLP replication, the “SI (selectivity index, ratio of CC50 to EC50)” value amounted to 27.7 ± 9.2. Also, the EC50 in the data set with Ebola trVLP replication (Zaire ebolavirus, HEK-293T) worked out at 0.7 ± 0.2 µM. In “in vitro [1]”, this compound gave a CC50 of 17.4 ± 0.6 µM.
The like results for `CC(=O)c1ccc2c(c1)N(CCCN1CCC(CCO)CC1)c1ccccc1S2` [Piperacetazine] were, in that order, 15.7 ± 4.6, 2 ± 0.6 µM and 26.1 ± 5.5 µM.
Consider `CCCC(C(=O)OCCN(CC)CC)(c1ccccc1)c1ccccc1` [Proadifen], for which the “SI (selectivity index, ratio of CC50 to EC50)” value in the data set with Ebola trVLP replication is reported as greater than 11.6. In the data set with Ebola trVLP replication (Zaire ebolavirus, HEK-293T), this compound came in with an EC50 of 2.7 ± 0.7 µM. This compound also showed a CC50 in the data set “in vitro [1]” greater than 30 µM.
`NC(=O)c1ncn([C@@H]2O[C@H](CO)[C@@H](O)[C@H]2O)n1` [RBV, ribavirin]: in the data set with Ebola trVLP replication, a half-maximal response (EC50) required 4.1 ± 2.1 µM and the “SI (selectivity index, ratio of CC50 to EC50)” value is greater than 16.3. Further, the “reduction” value in the data set with EBOV GP was found to be 62.5%. The compound further had a CC50 with HEK293T cells greater than 90 µM. Also, in the data set on VP40, the “VP40 protein level (Western blot)” value was “downregulated in a dose-dependent manner”.
On to `O=C(c1ccc(OCCN2CCCCC2)cc1)c1c(-c2ccc(O)cc2)sc2cc(O)ccc12` [Raloxifene, raloxifene hydrochloride], for which, in the data set with Ebola trVLP replication, the “SI (selectivity index, ratio of CC50 to EC50)” value is on record as 47.1 ± 2.2. Besides, the CC50 was determined as 13.9 µM in the data set “in vitro [1]”, 25.6 ± 0.2 µM in the data set with HEK293T cells and 23.4 µM in “in vitro [3]”. For the same compound, the “reduction” value with EBOV GP turned out to be 69.1%. Further, the “viral inhibition in cells” value in the data set with rhinovirus and in the data set on dengue virus was “no viral inhibition” each time. Moreover, the “amount” value in data set [2] is listed as “suppression of the amount of negative-sense minigenome RNA incorporated into trVLPs in a dose-dependent manner”. Besides, in the data set with VP40, the “VP40 protein level (Western blot)” value is listed as “downregulated in a dose-dependent manner”.
Turning to `Cc1[nH]c(/C=C2\C(=O)Nc3ccc(S(=O)(=O)N(C)c4cccc(Cl)c4)cc32)c(C)c1C(=O)N1CCN(C)CC1` [SU11274], the “SI (selectivity index, ratio of CC50 to EC50)” value in the data set on Ebola trVLP replication is greater than 13.6. This compound had an EC50 in the data set on Ebola trVLP replication (Zaire ebolavirus, HEK-293T) of 2.6 ± 1.4 µM. Further, the CC50 in the data set “in vitro [1]” is greater than 30 µM.
As to `O=C1NCCN1CCN1CCC(c2cn(-c3ccc(F)cc3)c3ccc(Cl)cc23)CC1` [Sertindole], in the data set on Ebola trVLP replication, the “SI (selectivity index, ratio of CC50 to EC50)” value was greater than 45.8. Also, the CC50 in the data set “in vitro [1]” was 23.1 µM; in the data set with HEK293T cells, greater than 30 µM; in the data set “in vitro [3]” it was 13.7 µM. For the same compound, the “reduction” value with EBOV GP is given as 84.7%. The “viral inhibition in cells” value in the data set with rhinovirus and in the data set on dengue virus was “no viral inhibition” throughout. For the same compound, the “amount” value in data set [2] was “suppression of the amount of negative-sense minigenome RNA incorporated into trVLPs in a dose-dependent manner”. The “VP40 protein level (Western blot)” value in the data set with VP40 is “downregulated in a dose-dependent manner”.
In the case of `CN(C)CCCN1c2ccccc2Sc2ccc(C(F)(F)F)cc21` [Triflupromazine], in the data set with Ebola trVLP replication, the “SI (selectivity index, ratio of CC50 to EC50)” value is greater than 23.8. This compound also showed a 50% effective concentration (EC50) in the data set on Ebola trVLP replication (Zaire ebolavirus, HEK-293T) of 1.4 ± 0.5 µM. This compound showed a CC50 in “in vitro [1]” greater than 30 µM.
